Experimental findings from patent US8148510B2, “Antifungal polypeptides” (Pioneer Hi-Bred International, Inc., priority 2004, dated 2012) are described below.

The test system of test [1] is Colletotrichum graminicola (CGR). The format is cell-based. The conditions noted are these: plate assay, qualitative.
The subject of test [2] is Fusarium verticillioides (FVE). The format is cell-based.
For test [3], the system named is Fusarium graminearum (FGR). The class given is cell-based. The conditions noted are these: plate assay, qualitative.
A further test relates to Diplodia maydis (DMA). The format is cell-based. The settings on record: plate assay, qualitative.
In test [4] the test system is Fusarium verticillioides (FVE). As to the kind of experiment: antifungal activity assay of transgenic maize callus extracts. The class given is cell-based. The settings on record: against FVE, qualitative.
The test system of test [5] is C. graminicola. The experiment in a line: lower stalk resistance of transgenic maize plants. The class given is in vivo, Colletotrichum graminicola. The settings on record: T0 transgenic maize, lowest internode inoculated 10 DAP, scored after 21 days, five lowermost internodes; empty vector control 4.0±0.2.
Test [6] relates to F. verticilioides line that expresses the reporter gene β-glucuronidase (GUS). As to the kind of experiment: Fusarium verticillioides challenge assay of maize seedlings (GUS activity). The format is in vivo. The settings on record: maize seedlings transformed with PHP22300; three days after spore exposure; 4 explants per event.
The test system of test [7] is C. graminicola. As to the kind of experiment: upper stalk resistance of transgenic maize plants. The settings on record: T0 transgenic maize, uppermost stalk internode, about five days after inoculation, 10 cm^2 area around inoculation site; control 84.7±2.6%. The class given is in vivo, Colletotrichum graminicola.

“Also recorded” adds a separate entry of the source. Read-outs that look alike come from different tables or passages of the source.

Turning to “LBNL-5197/8-2: antifungal polypeptide from Penicillium miczyinskii strain K01-17A4 (LSKYGGECSLAHNTCTYLKGGKNQVVACGTAANKRCKTDRHHCEYDEYHKTVDCQTPV)”, the “antifungal activity against CGR” value in test [1] is given as “display antifungal activity”. Besides, in test [2], the “antifungal activity against FVE” value is given as “anti-FVE activity; also recorded: display antifungal activity”. In test [3], the “antifungal activity against FGR” value was “display antifungal activity”. Also, the “antifungal activity against DMA” value in the test with Diplodia maydis (DMA) is “display antifungal activity”.
In the case of “LBNL-5220: antifungal polypeptide (55 amino acids, mature mass 6174 Da) isolated from Penicillium simplicissimum fermentation broth (LKYTGTCTRANNQCKYKGQNDRDTFVKCPTFANKKCTRDGAPCSFDSYSRAVTCD)”, the “antifungal activity of protein produced and isolated from transgenic maize callus” value in test [4] was “has antifungal activity”. For the same molecule, in the test with C. graminicola [5], the “mean score (number of internodes showing more than 75% disease)” value was determined as 2.2±0.1. In addition, the “antifungal activity against CGR” value in test [1] (listed as SEQ ID NO:1) is reported as “showed antifungal activity; also recorded: display antifungal activity”. Besides, the “average GUS activity (correlates with fungal biomass) relative to controls” value in test [6] is “decrease in average GUS activity”. In addition, in test [2], the “antifungal activity against FVE” value is recorded as “showed antifungal activity; also recorded: display antifungal activity”. Moreover, the “antifungal activity against FGR” value in test [3] (listed as SEQ ID NO:1) is listed as “showed antifungal activity; also recorded: display antifungal activity”. Further, in the test with Diplodia maydis (DMA) (listed as SEQ ID NO:1), the “antifungal activity against DMA” value is “showed antifungal activity; also recorded: display antifungal activity”. The “mean percent infected area” value in the test on C. graminicola [7] came out at 54.4±1.4%.
As to “LBNL-9827-1: antifungal polypeptide from Monascus ruber IMV 00127; identical to SEQ ID NO:9 without 3 N-terminal amino acids (LSKFGGECSLKHNTCTYLKGGKNHVVNCGSAANKKCKSDRHHCEYDEHHKRVDCQTPV)”, the “antifungal activity against CGR” value in test [1] is recorded as “display antifungal activity”. In addition, in test [2], the “antifungal activity against FVE” value is listed as “active against FVE; also recorded: display antifungal activity”. Besides, in test [3], the “antifungal activity against FGR” value is reported as “display antifungal activity”. Moreover, the “antifungal activity against DMA” value in the test with Diplodia maydis (DMA) is on record as “display antifungal activity”.

B1: LBNL-9827-2: antifungal polypeptide from Monascus ruber IMV 00127; 3 additional N-terminal amino acids versus SEQ ID NO:7 (protein)
chain: DVQLSKFGGECSLKHNTCTYLKGGKNHVVNCGSAANKKCKSDRHHCEYDEHHKRVDCQTPV
In the case of B1, the “antifungal activity against CGR” value in test [1] (listed as SEQ ID NO:9) was “inhibited FVE, FGR, CGR, and DMA in a dose-dependent fashion; also recorded: inhibited Colletotrichum graminicola, Diplodia maydis, Fusarium graminearum, and Fusarium verticillioides in a dose-dependent fashion; also recorded: display antifungal activity”. For the same molecule, in test [2], the “antifungal activity against FVE” value was “inhibited FVE, FGR, CGR, and DMA in a dose-dependent fashion; also recorded: inhibited Colletotrichum graminicola, Diplodia maydis, Fusarium graminearum, and Fusarium verticillioides in a dose-dependent fashion; also recorded: display antifungal activity”. The “antifungal activity against FGR” value in test [3] (listed as SEQ ID NO:9) is “inhibited FVE, FGR, CGR, and DMA in a dose-dependent fashion; also recorded: inhibited Colletotrichum graminicola, Diplodia maydis, Fusarium graminearum, and Fusarium verticillioides in a dose-dependent fashion; also recorded: display antifungal activity”. For the same molecule, in the test with Diplodia maydis (DMA) (listed as SEQ ID NO:9), the “antifungal activity against DMA” value was “inhibited FVE, FGR, CGR, and DMA in a dose-dependent fashion; also recorded: inhibited Colletotrichum graminicola, Diplodia maydis, Fusarium graminearum, and Fusarium verticillioides in a dose-dependent fashion; also recorded: display antifungal activity”.
